The test relates to CD2F1 mice, L1210 leukemia ip, survival T/C. In words: NCI In Vivo Anticancer Drug Screen. Data for tumor model L1210 Leukemia (intraperitoneal) in CD2F1 (CDF1) mice. The settings on record: higher = longer survival. An outline of the steps:
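Antitumor effect is scored in animals hosting a serially transplanted tumor. Values compare compound-dosed animals against vehicle-only controls as a simple quotient.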

[1] abbreviates: endpoint: mean survival time, dose: 100.0 mg/kg/injection, schedule: Q01DX001 (ip), vehicle: saline with Tween-80.
Where [2] appears, read: endpoint: mean survival time, dose: 200.0 mg/kg/injection, schedule: Q01DX001 (ip), vehicle: saline with Tween-80.
Where [3] appears, read: endpoint: mean survival time, dose: 400.0 mg/kg/injection, schedule: Q01DX001 (ip), vehicle: saline with Tween-80.
[4] abbreviates: endpoint: mean survival time, dose: 25.0 mg/kg/injection, schedule: Q01DX009 (ip), vehicle: saline with Tween-80.
The mark [5] stands for this setting: endpoint: mean survival time, dose: 100.0 mg/kg/injection, schedule: Q04DX002 (ip), vehicle: saline with Tween-80.
Where [6] appears, read: endpoint: mean survival time, dose: 200.0 mg/kg/injection, schedule: Q04DX002 (ip), vehicle: saline with Tween-80.
[7] abbreviates: endpoint: mean survival time, dose: 400.0 mg/kg/injection, schedule: Q04DX002 (ip), vehicle: saline with Tween-80.
Setting [8] is: endpoint: mean survival time, dose: 100.0 mg/kg/injection, schedule: Q01DX009 (ip), vehicle: saline with Tween-80.
The mark [9] stands for this setting: endpoint: mean survival time, dose: 100.0 mg/kg/injection, schedule: Q01DX009 (ip), vehicle: saline.
Where [10] appears, read: endpoint: mean survival time, dose: 200.0 mg/kg/injection, schedule: Q01DX009 (ip), vehicle: saline.
The mark [11] stands for this setting: endpoint: mean survival time, dose: 400.0 mg/kg/injection, schedule: Q01DX009 (ip), vehicle: saline.

“And” between values parts separate entries of the source, which are not always exact repeats. Identical values can stand only once. Toxic doses and inconclusive results are not listed.

Turning to `COc1ccc2[nH]c3c(c2c1)CCNC3CC(C)CCC=C(C)C` (stereo not drawn), the T/C runs as follows: (endpoint: mean survival time, dose: 6.25 mg/kg/injection, schedule: Q01DX009 (ip), vehicle: Klucel (hydroxypropylcellulose) (HPC)) 100 % of control and 110 % of control; (endpoint: mean survival time, dose: 12.5 mg/kg/injection, schedule: Q01DX009 (ip), vehicle: Klucel (hydroxypropylcellulose) (HPC)) 98 % of control and 102 % of control; (endpoint: mean survival time, dose: 25.0 mg/kg/injection, schedule: Q01DX009 (ip), vehicle: Klucel (hydroxypropylcellulose) (HPC)) 97 % of control and 101 % of control; (endpoint: mean survival time, dose: 50.0 mg/kg/injection, schedule: Q01DX009 (ip), vehicle: Klucel (hydroxypropylcellulose) (HPC)) 100 % of control and 103 % of control; (endpoint: mean survival time, dose: 100.0 mg/kg/injection, schedule: Q01DX009 (ip), vehicle: Klucel (hydroxypropylcellulose) (HPC)) 86 % of control and 100 % of control; (endpoint: mean survival time, dose: 200.0 mg/kg/injection, schedule: Q01DX009 (ip), vehicle: Klucel (hydroxypropylcellulose) (HPC)) 108 % of control.

As for `Nc1c(Cl)ncnc1NNC(=O)OCc1ccccc1`, the T/C (endpoint: mean survival time, dose: 100.0 mg/kg/injection, schedule: Q01DX001 (ip), vehicle: carboxymethylcellulose (CMC)) was 104 % of control; the T/C (endpoint: mean survival time, dose: 200.0 mg/kg/injection, schedule: Q01DX001 (ip), vehicle: carboxymethylcellulose (CMC)) is 98 % of control; the T/C (endpoint: mean survival time, dose: 400.0 mg/kg/injection, schedule: Q01DX001 (ip), vehicle: carboxymethylcellulose (CMC)) was 103 % of control.

Regarding `C=CCCCCCCCCC(=O)NCc1ccccn1`, the T/C under setting [1] was 93 % of control, the T/C under setting [2] is 102 % of control and the T/C under setting [3] is 91 % of control.

With `CC1=CC(=O)C(C(C)C)CC1=O` (stereo not drawn), the T/C (endpoint: mean survival time, dose: 6.25 mg/kg/injection, schedule: Q01DX009 (ip), vehicle: saline with Tween-80) is 98 % of control; the T/C (endpoint: mean survival time, dose: 12.5 mg/kg/injection, schedule: Q01DX009 (ip), vehicle: saline with Tween-80) is 102 % of control; the T/C under setting [4] is 95 % of control.

For `O=NN(CCCl)C(=O)NC1CCCN(Cc2ccccc2)C1` (stereo not drawn), the T/C runs as follows: (endpoint: mean survival time, dose: 6.25 mg/kg/injection, schedule: Q01DX001 (ip), vehicle: saline with Tween-80) 106 % of control; (endpoint: mean survival time, dose: 12.5 mg/kg/injection, schedule: Q01DX001 (ip), vehicle: saline with Tween-80) 115 % of control; (endpoint: mean survival time, dose: 50.0 mg/kg/injection, schedule: Q01DX001 (ip), vehicle: saline with Tween-80) 168 % of control; under setting [1], 340 % of control.

With `COC1OC2COc3ccccc3OC2C(NC#N)C1OC(C)=O` (stereo not drawn), the T/C runs as follows: under setting [1], 101 % of control; under setting [2], 100 % of control; under setting [3], 100 % of control.

As to `Nc1ccc(N)c(N)c1`, the T/C is, setting by setting: (endpoint: mean survival time, dose: 100.0 mg/kg/injection, schedule: Q04DX002 (ip), vehicle: saline) 97 % of control; (endpoint: mean survival time, dose: 200.0 mg/kg/injection, schedule: Q04DX002 (ip), vehicle: saline) 90 % of control; (endpoint: mean survival time, dose: 400.0 mg/kg/injection, schedule: Q04DX002 (ip), vehicle: saline) 97 % of control.

Turning to `CN(C)Cc1cc(C(C)(C)CC(C)(C)C)cc(CN(C)C)c1O`, the T/C is, setting by setting: (endpoint: mean survival time, dose: 25.0 mg/kg/injection, schedule: Q04DX003 (ip), vehicle: saline with Tween-80) 98 % of control; (endpoint: mean survival time, dose: 50.0 mg/kg/injection, schedule: Q04DX003 (ip), vehicle: saline with Tween-80) 100 % of control; (endpoint: mean survival time, dose: 100.0 mg/kg/injection, schedule: Q04DX003 (ip), vehicle: saline with Tween-80) 96 % of control and 97 % of control.

Consider `FC(F)(F)c1ccc2c(c1)N(CCCN(CCCl)CCCl)c1ccccc1S2`, for which the T/C was 100 % of control (endpoint: mean survival time, dose: 18.0 mg/kg/injection, schedule: Q01DX001 (ip), vehicle: saline) and 111 % of control (endpoint: mean survival time, dose: 28.0 mg/kg/injection, schedule: Q01DX001 (ip), vehicle: saline).

Take `[CH3][Tl]([CH3])[Br]`: the T/C is 100 % of control under setting [5], 96 % of control under setting [6] and 96 % of control under setting [7].

On to `Cc1[nH]c2ccccc2c1C(C)(Cc1cc2ccccc2[nH]1)c1ccncc1` (stereo not drawn), for which the T/C under setting [8] is 91 % of control; the T/C (endpoint: mean survival time, dose: 200.0 mg/kg/injection, schedule: Q01DX009 (ip), vehicle: saline with Tween-80) is 100 % of control; the T/C (endpoint: mean survival time, dose: 400.0 mg/kg/injection, schedule: Q01DX009 (ip), vehicle: saline with Tween-80) was 91 % of control.

`COc1cc2c(c(OC)c1OC)-c1ccc(SC)c(=O)cc1[C@@H](NC(=O)NCCCl)CC2`: the T/C runs as follows: (endpoint: mean survival time, dose: 1.56 mg/kg/injection, schedule: Q01DX005 (ip), vehicle: water) 103 % of control; (endpoint: mean survival time, dose: 3.13 mg/kg/injection, schedule: Q01DX005 (ip), vehicle: water) 103 % of control; (endpoint: mean survival time, dose: 6.25 mg/kg/injection, schedule: Q01DX005 (ip), vehicle: water) 122 % of control; (endpoint: mean survival time, dose: 6.25 mg/kg/injection, schedule: Q01DX009 (ip), vehicle: water) 123 % of control; (endpoint: mean survival time, dose: 12.5 mg/kg/injection, schedule: Q01DX005 (ip), vehicle: water) 117 % of control; (endpoint: mean survival time, dose: 12.5 mg/kg/injection, schedule: Q01DX009 (ip), vehicle: water) 123 % of control.

As to `COC(=O)C1=NC=NC1=[N+]=[N-]`, the T/C by setting is: (endpoint: mean survival time, dose: 10.0 mg/kg/injection, schedule: Q01DX001 (ip), vehicle: saline) 96 % of control; (endpoint: mean survival time, dose: 20.0 mg/kg/injection, schedule: Q01DX001 (ip), vehicle: saline) 93 % of control.

Turning to `O=C1NC(=O)C(=O)N1`, the T/C reads like this: under setting [9], 94 % of control; under setting [10], 105 % of control; under setting [11], 108 % of control.

`C=CCS(=O)(=O)Cc1cccc([N+](=O)[O-])c1`: the T/C by setting is: (endpoint: mean survival time, dose: 100.0 mg/kg/injection, schedule: Q04DX002 (ip), vehicle: Klucel (hydroxypropylcellulose) (HPC)) 103 % of control; (endpoint: mean survival time, dose: 200.0 mg/kg/injection, schedule: Q04DX002 (ip), vehicle: Klucel (hydroxypropylcellulose) (HPC)) 94 % of control; (endpoint: mean survival time, dose: 400.0 mg/kg/injection, schedule: Q04DX002 (ip), vehicle: Klucel (hydroxypropylcellulose) (HPC)) 90 % of control.

Take `[Cl][Sn]([c]1ccccc1)([c]1ccccc1)[c]1ccccc1`: the T/C was 91 % of control (endpoint: mean survival time, dose: 2.5 mg/kg/injection, schedule: Q04DX003 (ip), vehicle: saline); 100 % of control (endpoint: mean survival time, dose: 5.0 mg/kg/injection, schedule: Q04DX003 (ip), vehicle: saline); 97 % of control (endpoint: mean survival time, dose: 10.0 mg/kg/injection, schedule: Q04DX003 (ip), vehicle: saline with Tween-80); 96 % of control (endpoint: mean survival time, dose: 10.0 mg/kg/injection, schedule: Q04DX003 (ip), vehicle: saline).

For `CCOC(/C=C/c1ccccc1)OCC`, the T/C under setting [9] was 100 % of control, the T/C under setting [10] was 94 % of control and the T/C under setting [11] was 103 % of control.

For `CC(=O)CCC(=O)C1SCCS1`, the T/C is 101 % of control under setting [5], 97 % of control under setting [6] and 101 % of control under setting [7].

In the case of `NC(CSS(=O)(=O)O)=NCC1CCCCC1`, the T/C (endpoint: mean survival time, dose: 6.25 mg/kg/injection, schedule: Q04DX002 (ip), vehicle: saline with Tween-80) is 101 % of control and 107 % of control; the T/C (endpoint: mean survival time, dose: 12.5 mg/kg/injection, schedule: Q04DX002 (ip), vehicle: saline with Tween-80) was 104 % of control and 112 % of control; the T/C (endpoint: mean survival time, dose: 25.0 mg/kg/injection, schedule: Q04DX002 (ip), vehicle: saline with Tween-80) is 96 % of control.

On to `N=C(N)SCCCSC(=N)N`, for which the T/C is 101 % of control under setting [4]; 96 % of control (endpoint: mean survival time, dose: 50.0 mg/kg/injection, schedule: Q01DX009 (ip), vehicle: saline with Tween-80); 98 % of control (endpoint: mean survival time, dose: 50.0 mg/kg/injection, schedule: Q04DX003 (ip), vehicle: saline); 90 % of control under setting [8]; 104 % of control (endpoint: mean survival time, dose: 100.0 mg/kg/injection, schedule: Q04DX003 (ip), vehicle: saline); 102 % of control (endpoint: mean survival time, dose: 200.0 mg/kg/injection, schedule: Q04DX003 (ip), vehicle: saline).

Take `O=C(Nc1cccc(F)c1)c1c(O)[nH]c(=S)[nH]c1=O`: the T/C is, setting by setting: (endpoint: median survival time, dose: 25.0 mg/kg/injection, schedule: Q01DX009 (ip), vehicle: saline with Tween-80) 114 % of control and 106 % of control; (endpoint: median survival time, dose: 50.0 mg/kg/injection, schedule: Q01DX009 (ip), vehicle: saline with Tween-80) 113 % of control and 114 % of control; (endpoint: median survival time, dose: 100.0 mg/kg/injection, schedule: Q01DX009 (ip), vehicle: saline with Tween-80) 117 % of control; (endpoint: median survival time, dose: 200.0 mg/kg/injection, schedule: Q01DX009 (ip), vehicle: saline with Tween-80) 155 % of control.

These data come from PubChem BioAssay AID256 (DTP/NCI, 2004).
